We go through 16 compounds from PubChem BioAssay (NCI).

Where “and” joins values, the source holds several entries; their conditions need not be identical. Equal values may be shown once.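 Each compound was tested at five concentrations against cells in 96-well plates for 48 hours. GI50 marks 50% less growth. The concentration for full growth arrest is given as TGI.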 Some results are limits rather than exact numbers.

Test systems include UO-31 renal; U251 CNS; SK-MEL-28 melanoma; SF-295 CNS; IGROV1 ovarian; SNB-75 CNS; CCRF-CEM leukemia; OVCAR-4 ovarian; MCF7 breast.
Holding throughout (experiment): inhibition of tumour cell growth, NCI panel, 48 h

Consider `O=C(O)C(CP(=O)(O)O)=C(Cl)Cl`, for which the TGI with UO-31 renal, in the experiment on U251 CNS, in the experiment on SK-MEL-28 melanoma, in the experiment with SF-295 CNS, in the experiment on IGROV1 ovarian and in the experiment on SNB-75 CNS was more than 100 µM throughout. In the experiment on CCRF-CEM leukemia, this compound registered a TGI of more than 100 µM.

With `CCC[CH2][Sn]1([CH2]CCC)[O]C(=O)c2cc(I)cc(I)c2[O]1`, the GI50 is 1.49 µM in the experiment on UO-31 renal; 0.882 µM with U251 CNS; 1.91 µM in the experiment on SF-295 CNS; 1.81 µM with IGROV1 ovarian; 1.04 µM with SNB-75 CNS; 0.22 µM with CCRF-CEM leukemia. Besides, in the experiment on OVCAR-4 ovarian, the GI50 is 1.41 µM. Further, the TGI came out at 2.82 µM in the experiment on UO-31 renal; 2.1 µM in the experiment with U251 CNS; 3.53 µM in the experiment on SF-295 CNS; 3.36 µM in the experiment with IGROV1 ovarian; 2.25 µM with SNB-75 CNS; 0.79 µM with CCRF-CEM leukemia. Besides, the TGI in the experiment with OVCAR-4 ovarian came to 2.83 µM.

As to `CC1CC2(C)ON=C(c3ccccc3)N2c2ccccc2S1` (stereo not given), the GI50 is 28.1 µM in the experiment on UO-31 renal; 34.9 µM in the experiment on U251 CNS; 31.4 µM in the experiment on MCF7 breast; 76.7 µM in the experiment with SK-MEL-28 melanoma; 28.9 µM with SF-295 CNS; 53 µM in the experiment with IGROV1 ovarian. The GI50 is 41.8 µM in the experiment on SNB-75 CNS, 28.1 µM in the experiment on CCRF-CEM leukemia and 88 µM in the experiment with OVCAR-4 ovarian. Also, the TGI amounted to 79 µM in the experiment with MCF7 breast, 79.1 µM with SF-295 CNS and 77.6 µM with CCRF-CEM leukemia.

Turning to `Cc1c(Cl)ccc2c1NC(=O)C2(O)C(C(=O)c1ccccc1)c1ccccc1` (stereo not given), the TGI in the experiment on UO-31 renal was more than 100 µM; in the experiment on U251 CNS it was more than 100 µM; in the experiment with SK-MEL-28 melanoma it was more than 100 µM; with SF-295 CNS it was 92.6 µM; with IGROV1 ovarian it was more than 100 µM; with SNB-75 CNS, more than 100 µM. The TGI in the experiment with CCRF-CEM leukemia was 73.8 µM; with OVCAR-4 ovarian, 28.7 µM.

As to `CS(=O)(=O)NNS(=O)(=O)c1cccc([N+](=O)[O-])c1`, the TGI in the experiment with UO-31 renal, in the experiment with U251 CNS, in the experiment with SF-295 CNS, with IGROV1 ovarian, with SNB-75 CNS and in the experiment on CCRF-CEM leukemia was more than 100 µM in each case. Besides, the TGI in the experiment on OVCAR-4 ovarian was more than 100 µM.

As for `COc1ccc(C(=O)C(c2ccc(OC)cc2)C2(O)C(=O)Nc3ccccc32)cc1` (stereo not given), the TGI in the experiment on UO-31 renal, in the experiment with U251 CNS, in the experiment on SK-MEL-28 melanoma, with SF-295 CNS, in the experiment on IGROV1 ovarian and in the experiment with SNB-75 CNS was more than 100 µM in each case. In the experiment with CCRF-CEM leukemia, this compound had a TGI of more than 100 µM.

In the case of `O=S1c2ccccc2N=C(c2ccc3ccccc3c2)CC1C1=CC=CCC1` (stereo not given), the TGI with UO-31 renal is 26.7 µM; in the experiment with SK-MEL-28 melanoma, 33.1 µM; in the experiment on SF-295 CNS, 39.6 µM; with IGROV1 ovarian, 28.9 µM; in the experiment on SNB-75 CNS, 50.6 µM; with CCRF-CEM leukemia it was 23.6 µM.

Turning to `COc1cc(/C=C2\[C@H]3c4c(c(OC)c(C)c(OC)c4OC)C[C@@H](C(=O)N2Cc2ccccc2)N3C(=O)OCC(C)C)c(OC)c(C)c1OC`, the TGI in the experiment with UO-31 renal, in the experiment on U251 CNS, in the experiment with SK-MEL-28 melanoma, with SF-295 CNS, with IGROV1 ovarian and with SNB-75 CNS was more than 100 µM in each case. In addition, the TGI with CCRF-CEM leukemia and in the experiment with OVCAR-4 ovarian was more than 100 µM each time.

With `COc1ccc2c(=O)c(C)c(-c3ccccc3)oc2c1CN(C)C`, the TGI in the experiment on UO-31 renal is more than 100 µM; in the experiment with U251 CNS it was more than 100 µM; with SK-MEL-28 melanoma it was more than 100 µM; in the experiment on SF-295 CNS, more than 100 µM; in the experiment on IGROV1 ovarian, more than 100 µM; in the experiment with SNB-75 CNS, > 100 µM and 98.4 µM. Moreover, the TGI in the experiment on CCRF-CEM leukemia and in the experiment on OVCAR-4 ovarian was more than 100 µM in each case.

Take `C/C(=C\C(C)COCc1ccccc1)[C@H](COCc1ccccc1)OCc1ccccc1` (stereo not given in full): the TGI in the experiment on UO-31 renal, in the experiment with U251 CNS, in the experiment with SK-MEL-28 melanoma, with SF-295 CNS, with IGROV1 ovarian and in the experiment with SNB-75 CNS was more than 100 µM throughout. For the same compound, the TGI in the experiment on CCRF-CEM leukemia and in the experiment with OVCAR-4 ovarian was more than 100 µM in each case.

In the case of `CCOC12OC3=C(CC1CC1=C(CCC1=O)O2)C(=O)CC3` (stereo not given), the TGI with UO-31 renal, in the experiment with U251 CNS, in the experiment on SF-295 CNS, with IGROV1 ovarian, in the experiment with SNB-75 CNS and with CCRF-CEM leukemia was more than 100 µM throughout. Besides, the TGI with OVCAR-4 ovarian is more than 100 µM.

With `CCCN(CCCCC(NC(C)=O)C(=O)NCc1ccccc1)C(=O)N(C)N=O` (stereo not given), the TGI with UO-31 renal, in the experiment with U251 CNS, with SK-MEL-28 melanoma, with SF-295 CNS, with IGROV1 ovarian and in the experiment with SNB-75 CNS was more than 100 µM in each case. Further, the TGI in the experiment with CCRF-CEM leukemia and with OVCAR-4 ovarian was more than 100 µM throughout.

Consider `CCOC(=O)/C(O)=C(/c1n[nH]c(=O)c2ccccc12)[N+](=O)[O-]`, for which the TGI with UO-31 renal, in the experiment on U251 CNS, in the experiment on SK-MEL-28 melanoma, in the experiment on SF-295 CNS, in the experiment on IGROV1 ovarian and in the experiment on SNB-75 CNS was more than 100 µM in each case. The TGI with CCRF-CEM leukemia and in the experiment on OVCAR-4 ovarian was more than 100 µM in each case.

As for `O=c1/c(=C/c2cccc([N+](=O)[O-])c2)sc2nc3ccccc3n12`, the TGI in the experiment with UO-31 renal, in the experiment on SK-MEL-28 melanoma, in the experiment with SNB-75 CNS, in the experiment with CCRF-CEM leukemia and in the experiment on OVCAR-4 ovarian was more than 100 µM in each case.

As to `Cc1nc(Cl)nc(Cl)c1C`, the TGI in the experiment on UO-31 renal, with U251 CNS, in the experiment on MCF7 breast, in the experiment on SK-MEL-28 melanoma, with SF-295 CNS and with IGROV1 ovarian was more than 100 µM each time. Moreover, the TGI in the experiment with SNB-75 CNS, with CCRF-CEM leukemia and with OVCAR-4 ovarian was more than 100 µM throughout.

Take `COc1cc(/C=C2/C(=O)N(C(=O)OC(C)C)C(Cc3cc(OC)c(OC)c(C)c3OC)C(=O)N2Cc2ccccc2)c(OC)c(C)c1OC` (stereo not given): the TGI in the experiment on UO-31 renal, with U251 CNS, in the experiment on SK-MEL-28 melanoma, in the experiment on SF-295 CNS, in the experiment on IGROV1 ovarian and with SNB-75 CNS was more than 100 µM each time. Moreover, the TGI in the experiment on CCRF-CEM leukemia and in the experiment on OVCAR-4 ovarian was more than 100 µM in each case.
